The source of these data is ChEMBL document CHEMBL5120862, “Novel non-covalent LSD1 inhibitors endowed with anticancer effects in leukemia and solid tumor cellular models” (Eur J Med Chem, 2022).

The test system of series [1] is SJRH30. Description: Antiproliferative activity against human Rh30 cells assessed as inhibition of cell growth incubated for 144 hrs. The format is functional, cell-based. Particulars: SJRH30, 144 h.
In series [2] the test system is SJRH30. Description: Antiproliferative activity against human Rh30 cells assessed as reduction in live cells at 2 uM incubated for 24 hrs by calceinAM/propidium iodide staining based fluorescence microscopy. The format is functional, cell-based.
The test system of series [3] is RD. In words: Antiproliferative activity against human RD cells assessed as inhibition of cell growth incubated for 24 hrs. The format is functional, cell-based.
The target of series [4] is Lysine-specific histone demethylase 1A (Homo sapiens) (UniProt O60341). In words: Inhibition of LSD1 in human RD cells assessed as increase in H3K4me2 level at 1 uM incubated for 48 hrs by Western blot analysis. The format is cell-based. (In general: In western blotting, separated proteins are transferred to a membrane and probed.)
Series [5] relates to MV4-11. In words: Induction of cell cycle arrest in human MV4-11 cells assessed as accumulation of cells at G1 phase at 0.2 to […] incubated for 24 hrs. The format is functional, cell-based. Particulars: dose 0.2-2.5 µM.
Series [6] addresses Lysine-specific histone demethylase 1A (Homo sapiens) (UniProt O60341). In words: Inhibition of LSD1 in human Rh30 cells assessed as increase in H3K4me2 level at 1 uM incubated for 48 hrs by Western blot analysis. Type of series: cell-based.
Series [7] shares this target. In words: Inhibition of LSD1 in human MV4-11 cells assessed as increase in CD86 expression level incubated for 24 hrs by qRT-PCR analysis. Type of series: cell-based. Particulars: dose 0.2-1 µM. Background: In qPCR the cycle at which signal appears reflects the starting amount.
Series [8] concerns RD. Description: Antiproliferative activity against human RD cells assessed as inhibition of cell growth incubated for 72 hrs. The format is functional, cell-based.
The target of series [9] is T1, MAO-B (amine oxidase [flavin-containing] B) (Homo sapiens, UniProt P27338).
T1 sequence (P27338 whole entry): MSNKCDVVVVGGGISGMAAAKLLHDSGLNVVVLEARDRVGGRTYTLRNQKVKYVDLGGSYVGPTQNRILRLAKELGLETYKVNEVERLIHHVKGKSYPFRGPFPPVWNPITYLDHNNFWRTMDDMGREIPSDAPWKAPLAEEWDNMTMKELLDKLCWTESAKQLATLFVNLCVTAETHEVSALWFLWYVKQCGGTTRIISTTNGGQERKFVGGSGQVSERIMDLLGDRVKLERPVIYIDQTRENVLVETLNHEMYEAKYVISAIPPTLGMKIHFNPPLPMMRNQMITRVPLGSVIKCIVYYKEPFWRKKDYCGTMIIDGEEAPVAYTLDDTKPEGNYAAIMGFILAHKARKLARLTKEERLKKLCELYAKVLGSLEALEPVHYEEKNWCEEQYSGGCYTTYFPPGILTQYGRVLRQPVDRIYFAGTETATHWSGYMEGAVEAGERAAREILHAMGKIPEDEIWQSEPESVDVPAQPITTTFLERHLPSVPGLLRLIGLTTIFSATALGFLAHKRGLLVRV
In words: Inhibition of human MAO-B using p-tyramine as substrate at 100 uM by fluorimetric analysis relative to control. Particulars: human MAO-B enzyme, probe p-tyramine.

Series [10] relates to RD. Description: Antiproliferative activity against human RD cells assessed as reduction in live cells at 2 uM incubated for 72 hrs by calceinAM/propidium iodide staining based fluorescence microscopy. Type of series: functional, cell-based.
In series [11] the target is T2, MAO-A (amine oxidase [flavin-containing] A) (Homo sapiens, UniProt P21397).
T2 sequence (P21397 whole entry): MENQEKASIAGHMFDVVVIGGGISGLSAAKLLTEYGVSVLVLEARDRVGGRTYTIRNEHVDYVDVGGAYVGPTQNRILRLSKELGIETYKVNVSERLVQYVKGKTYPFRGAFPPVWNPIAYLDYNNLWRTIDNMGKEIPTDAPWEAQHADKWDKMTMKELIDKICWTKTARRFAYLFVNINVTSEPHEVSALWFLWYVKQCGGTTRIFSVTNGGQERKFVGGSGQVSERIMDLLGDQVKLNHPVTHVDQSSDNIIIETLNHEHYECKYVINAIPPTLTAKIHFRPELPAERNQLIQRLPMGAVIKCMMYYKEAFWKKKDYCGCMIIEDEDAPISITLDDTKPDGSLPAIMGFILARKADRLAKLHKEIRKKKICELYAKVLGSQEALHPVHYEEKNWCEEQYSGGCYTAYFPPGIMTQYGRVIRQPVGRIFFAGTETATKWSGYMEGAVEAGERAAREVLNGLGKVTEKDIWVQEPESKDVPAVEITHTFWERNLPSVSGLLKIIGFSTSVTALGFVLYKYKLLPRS
In words: Inhibition of human MAO-A using p-tyramine as substrate at 100 uM by fluorimetric analysis relative to control. Particulars: human MAO-A enzyme, probe p-tyramine.

For series [12], the target named is Lysine-specific histone demethylase 1A (Homo sapiens) (UniProt O60341). Description: Inhibition of LSD1 in human MV4-11 cells assessed as increase in H3K4me2 level at 0.2 to […] incubated for 24 hrs by Western blot analysis. Type of series: cell-based. Particulars: dose 0.2-2.5 µM.
Series [13] has as its system RD. In words: Induction of apoptosis in human RD cells assessed as increase in caspase 3/7 level at 2 uM incubated for 24 hrs. Type of series: functional, cell-based.
For series [14], the system named is MV4-11. Description: Antiproliferative activity against human MV4-11 cells assessed as inhibition of cell growth at 1 uM incubated for 144 hrs by trypan blue staining based analysis. The format is functional.

The source made the active and inactive calls. No cut-off for these calls is given here.

The term IC50 denotes the concentration needed to halve the response being measured. One may read the inhibition as the percentage by which the read-out fell short of the control. With `COc1cc2c(NC3CCN(Cc4ccccc4)CC3)nc(NCCCN(C)C)nc2cc1OCc1ccccc1`, the figures for the half-inhibitory concentration (IC50) in [1], in series [3] and in [8] were 680 nM, 1230 nM and 850 nM, respectively. Besides, the result in [2], in series [5], in series [10] and in series [13] was Active. Further, the inhibition result in [4], in [6], in series [7], in [12] and in series [14] was “Active” in each case. The inhibition at 100 µM came out at 0.5% in [9] and 0.8% in [11].
